Assay results: ChEMBL document CHEMBL1201862, “PubChem BioAssay data set” (2004)
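Protocol summary: plate cells (96-well), add compound at 5 concentrations, incubate 48 h, interpolate endpoints linearly. Here, GI50 denotes the concentration required for 50% inhibition of growth.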 The source made the active and inactive calls. Rule as the data show it: active = GI50 up to about 1.1 µM and inactive = higher. Numbered stars: 1 amine (or outer) side, 2 acyl side, 3 side chain; on linkers, the order of the positions; unused ones are H or OH. Square brackets hold non-standard residues; d marks the D form. Peptide text beside a SMILES is read from it. X55 = CC[C@H](C)[C@H](OC(=O)[C@@H](C)[C@@H](CC)N[*:1])C(=O)[*:2]; X31 = C[C@H](N[*:1])C(=O)C(C)(C)C(=O)[*:2]; NMeY = CN[C@@H](Cc1ccc(O)cc1)C(=O)O; NMeL = CN[C@@H](CC(C)C)C(=O)O; NMeV = CN[C@H](C(=O)O)C(C)C

Tests used:
Experiment in all cases: inhibition of tumour cell growth, NCI panel, 48 h
A498 = system: A498
COLO 205 = system: COLO 205
DU-145 = system: DU-145
HCC 2998 = system: HCC 2998
HCT-116 = system: HCT-116
HL-60 = system: HL-60
HOP-92 = system: HOP-92
HT-29 = system: HT-29
K562 = system: K562
KM-20L2 = system: KM-20L2
M19-MEL = system: M19-MEL
MCF7 = system: MCF7
MOLT-4 = system: MOLT-4
NCI-H23 = system: NCI-H23
PC-3 = system: PC-3
RXF 393 = system: RXF 393
SK-MEL-2 = system: SK-MEL-2
SK-OV-3 = system: SK-OV-3
SNB-75 = system: SNB-75
SR = system: SR

Measured: GI50

CC1=C(C(=O)Nc2ccc(Cl)c(C(=O)OC(C)C)c2)SCCO1
inactive: A498 53.5 µM | COLO 205 51.9 µM | DU-145 > 100 µM | HCC 2998 54.8 µM | HCT-116 > 77.4 µM | HL-60 13.8 µM | HOP-92 66.2 µM | HT-29 25.7 µM | K562 45.6 µM | KM-20L2 33.9 µM | M19-MEL 26.6 µM | MCF7 55.3 µM | MOLT-4 40.4 µM | NCI-H23 69.2 µM | PC-3 > 100 µM | RXF 393 48.1 µM | SK-MEL-2 68.4 µM | SK-OV-3 > 81.1 µM | SNB-75 75.9 µM

CN(C)C(CN)CC1=C(CC(CN)N(C)C)CCC1 (stereo unspecified)
inactive: A498 > 100 µM | COLO 205 > 100 µM | HCC 2998 > 100 µM | HCT-116 > 100 µM | HL-60 > 100 µM | HOP-92 > 100 µM | HT-29 > 100 µM | K562 > 100 µM | KM-20L2 > 100 µM | M19-MEL > 100 µM | MCF7 > 100 µM | MOLT-4 > 100 µM | NCI-H23 > 100 µM | RXF 393 > 100 µM | SK-MEL-2 > 100 µM | SK-OV-3 > 100 µM | SNB-75 > 100 µM

O=C(Nc1nccs1)c1cc(C2=CC=CC([N+](=O)[O-])C=C2)nc(S)n1 (stereo unspecified)
inactive: A498 > 100 µM | COLO 205 > 100 µM | HCC 2998 > 100 µM | HCT-116 > 100 µM | HL-60 > 100 µM | HOP-92 > 100 µM | HT-29 > 100 µM | K562 > 100 µM | KM-20L2 > 100 µM | M19-MEL > 100 µM | MOLT-4 > 100 µM | NCI-H23 > 100 µM | RXF 393 > 100 µM | SK-MEL-2 > 100 µM | SK-OV-3 > 100 µM | SNB-75 > 100 µM | SR > 100 µM

NC(=O)N/N=C1/CCCC/C1=C\c1ccccc1
inactive: A498 > 100 µM | COLO 205 > 100 µM | HCC 2998 > 100 µM | HCT-116 > 100 µM | HL-60 > 100 µM | HOP-92 > 100 µM | HT-29 > 100 µM | K562 > 100 µM | KM-20L2 > 100 µM | M19-MEL > 100 µM | MOLT-4 36.6 µM | NCI-H23 > 100 µM | RXF 393 > 100 µM | SK-MEL-2 > 100 µM | SK-OV-3 > 100 µM | SNB-75 76.6 µM | SR > 100 µM

COc1cc2c(cc1OC)C(Cc1c3ccccc3cc3ccccc13)N(C)CC2 (stereo unspecified)
inactive: A498 17.4 µM | COLO 205 11.2 µM | HCT-116 14.9 µM | HL-60 10.4 µM | HOP-92 11.4 µM | HT-29 13.5 µM | K562 12.5 µM | KM-20L2 15.2 µM | M19-MEL 21.3 µM | MCF7 13.7 µM | MOLT-4 16 µM | NCI-H23 29 µM | RXF 393 10.5 µM | SK-MEL-2 17.6 µM | SK-OV-3 22.4 µM | SNB-75 14.4 µM

COc1ccc(C2CCC(Cl)(OC)CC2C=O)cc1 (stereo unspecified)
active: RXF 393 0.128 µM
inactive: A498 > 100 µM | COLO 205 > 100 µM | HCC 2998 > 100 µM | HCT-116 52 µM | HL-60 69.5 µM | HOP-92 29.9 µM | HT-29 50.7 µM | K562 > 100 µM | KM-20L2 67.1 µM | M19-MEL 32.1 µM | MOLT-4 47.5 µM | NCI-H23 34.6 µM | SK-MEL-2 21.9 µM | SK-OV-3 > 100 µM | SNB-75 31.4 µM | SR 41.1 µM

CCOC(=O)/C(O)=C1\C(=O)N(C)C(=O)C1c1ccc(OC)c(OC)c1 (stereo unspecified)
inactive: A498 > 100 µM | COLO 205 > 100 µM | HCC 2998 > 100 µM | HCT-116 > 100 µM | HL-60 > 100 µM | HOP-92 > 100 µM | HT-29 > 100 µM | K562 > 100 µM | KM-20L2 > 100 µM | M19-MEL > 100 µM | MCF7 > 100 µM | MOLT-4 > 100 µM | NCI-H23 > 100 µM | RXF 393 > 100 µM | SK-MEL-2 > 100 µM | SK-OV-3 > 100 µM | SNB-75 > 100 µM

CC(C)(C)N/N=N/c1cn(C2OC(CO)C(O)C2O)c(=O)[nH]c1=O (stereo unspecified)
inactive: A498 > 100 µM | COLO 205 37.2 µM | HCC 2998 > 100 µM | HCT-116 40.7 µM | HL-60 50.9 µM | HOP-92 > 100 µM | HT-29 > 100 µM | K562 40.7 µM | KM-20L2 > 100 µM | M19-MEL > 100 µM | MOLT-4 > 100 µM | NCI-H23 > 100 µM | RXF 393 61.4 µM | SK-MEL-2 > 100 µM | SK-OV-3 > 100 µM | SNB-75 > 100 µM | SR 20.8 µM

CC[C@H](C)[C@@H]1OC(=O)[C@@H](C)[C@@H](CC)NC(=O)[C@H](C)NC(=O)C(C)(C)C(=O)[C@H](C)NC(=O)[C@H](Cc2ccc(OC)cc2)N(C)C(=O)[C@H](C(C)C)N(C)C(=O)CNC(=O)[C@H](CC(C)C)N(C)C(=O)CNC1=O [DOLASTATIN 11] (cyclo(A[X55]G[NMeL]G[NMeV][NMeY](Me)[X31]))
active: A498 0.118 µM | DU-145 0.118 µM | HCC 2998 0.0188 µM | HCT-116 0.154 µM | HL-60 0.0117 µM | HOP-92 0.0752 µM | HT-29 0.0264 µM | K562 0.0885 µM | KM-20L2 < 0.0197 µM | M19-MEL 0.344 µM | MCF7 0.0592 µM | MOLT-4 0.543 µM | NCI-H23 0.071 µM | PC-3 0.0849 µM | RXF 393 0.0223 µM | SK-MEL-2 0.0787 µM | SK-OV-3 0.229 µM | SNB-75 0.0847 µM | SR 0.0355 µM
